According to ChEMBL document CHEMBL3603804, “Cyclin dependent kinase (CDK) inhibitors as anticancer drugs” (Bioorg Med Chem Lett, 2015):

Experiments:
[1] = molecular target: T1, Cyclin-dependent kinase 1/cyclin B1 (Homo sapiens, UniProt P06493); experiment: Inhibition of recombinant CDK1/GST-fused cyclin B (unknown origin) expressed in baculovirus infected insect Sf9 cells by substrate phosphorylation assay in presence of [33P]-gamma adenosine triphosphate
[2] = molecular target: T2, Cyclin-dependent kinase 2/cyclin E1 (Homo sapiens, UniProt P24941); experiment: Inhibition of recombinant CDK2/GST-fused cyclin E (unknown origin) expressed in baculovirus infected insect Sf9 cells by substrate phosphorylation assay in presence of [33P]-gamma adenosine triphosphate
[3] = molecular target: Vascular endothelial growth factor receptor 2 (Homo sapiens, UniProt P35968); experiment: Inhibition of VEGFR2 (unknown origin)
MCF7 = experiment: Cytotoxicity against human MCF7 cells assessed as growth inhibition after 96 hrs; assay type: functional, cell-based; settings: MCF7, 96 h
Carbonic anhydrase 2 = Carbonic anhydrase 2 (Homo sapiens, UniProt P00918); experiment: Inhibition of carbonic anhydrase-2 (unknown origin)
[4] = molecular target: T3, Cyclin-dependent kinase 2/cyclin A (Homo sapiens, UniProt P24941); experiment: Non-competitive inhibition of human CDK2/cyclinA using PKTPKKAKKL as substrate in presence of ATP; assay type: protein-complex assay
MDA-MB-231 = experiment: Cytotoxicity against human MDA-MB-231 cells; assay type: functional, cell-based
[5] = molecular target: T4, Cyclin-dependent kinase 4/cyclin D1 (Homo sapiens, UniProt P11802); experiment: Inhibition of human CDK4/cyclin D1 expressed in insect cells assessed as phosphorylation of CTRF after 50 mins by microplate scintillation counter
[6] = molecular target: T1, Cyclin-dependent kinase 1/cyclin B1; assay type: protein-complex assay
Description: Inhibition of human CDK1/cyclin B1 (unknown origin)

[7] = molecular target: T5, Cyclin-dependent kinase 4/6 (Homo sapiens, UniProt P11802+Q00534); experiment: Inhibition of CDK4/6 in human COLO205 cells assessed as inhibition of Rb phosphorylation after 24 hrs by propidium iodide staining-based laser-scanning fluorescence microplate cytometric analysis; assay type: cell-based; settings: colo 205
[8] = molecular target: T5, Cyclin-dependent kinase 4/6; experiment: Inhibition of CDK4/6 in human COLO205 cells assessed as maximum cell cycle arrest at G1 phase after 24 hrs by propidium iodide staining-based flow cytometric analysis; settings: COLO 205
[9] = molecular target: T4, Cyclin-dependent kinase 4/cyclin D1; experiment: Inhibition of CDK4/cyclin D1 (unknown origin) expressed in baculovirus infected insect Sf9 cells assessed as inhibition of GST-tagged Rb phosphorylation after 30 mins in presence of [33P]-ATP
[10] = molecular target: T2, Cyclin-dependent kinase 2/cyclin E1; experiment: Inhibition of CDK2/cyclin E (unknown origin) expressed in baculovirus infected insect Sf9 cells assessed as inhibition of GST-tagged Rb phosphorylation after 30 mins in presence of [33P]-ATP
HCT-116 = experiment: Cytotoxicity against human HCT116 cells assessed as growth inhibition after 3 days by MTT assay; assay type: functional, cell-based; settings: HCT-116, 72 h
[11] = Chemical stability of the compound in phosphate buffer assessed as remaining compound at pH 1.2 at 37 degC after 3 hrs; assay type: physicochemical; settings: read-out: Stability
MDA-MB-468 = experiment: Antiproliferative activity against Rb-negative human MDA-MB-468 cells assessed as inhibition of [14C]-thymidine incorporation into DNA preincubated for 24 hrs followed by [14C]-thymidine addition measured after 72 hrs by beta plate counting analysis; assay type: cell-based
[12] = molecular target: T3, Cyclin-dependent kinase 2/cyclin A; experiment: Competitive inhibition of human CDK2/cyclinA using PKTPKKAKKL as substrate in presence of ATP; assay type: protein-complex assay
Jurkat = experiment: Cytotoxicity against human Jurkat cells assessed as cell viability after 72 hrs by resazurin assay; assay type: functional, cell-based

T1 sequence (P06493 whole entry, the tested form may be a part): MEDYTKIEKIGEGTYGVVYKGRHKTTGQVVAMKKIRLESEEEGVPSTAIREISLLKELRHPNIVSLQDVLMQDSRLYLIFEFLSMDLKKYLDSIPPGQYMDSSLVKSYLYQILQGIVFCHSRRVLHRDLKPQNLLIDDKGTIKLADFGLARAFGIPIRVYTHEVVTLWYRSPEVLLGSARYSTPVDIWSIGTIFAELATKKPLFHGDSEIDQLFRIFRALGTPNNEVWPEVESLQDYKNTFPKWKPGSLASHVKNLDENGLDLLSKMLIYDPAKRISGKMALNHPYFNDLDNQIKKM
T1 sequence (P14635 whole entry, further chain, the tested form may be a part): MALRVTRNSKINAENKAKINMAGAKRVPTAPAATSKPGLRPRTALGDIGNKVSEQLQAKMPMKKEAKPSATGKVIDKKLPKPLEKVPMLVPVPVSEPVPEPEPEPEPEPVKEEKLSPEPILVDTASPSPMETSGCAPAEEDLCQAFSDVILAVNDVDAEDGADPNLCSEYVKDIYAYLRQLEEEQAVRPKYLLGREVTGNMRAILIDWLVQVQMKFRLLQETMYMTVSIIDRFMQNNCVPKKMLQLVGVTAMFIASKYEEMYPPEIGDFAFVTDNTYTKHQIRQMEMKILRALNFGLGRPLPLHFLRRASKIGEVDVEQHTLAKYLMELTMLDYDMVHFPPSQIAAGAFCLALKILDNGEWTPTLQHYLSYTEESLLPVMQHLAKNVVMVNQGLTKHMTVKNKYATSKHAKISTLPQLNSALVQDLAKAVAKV
Vascular endothelial growth factor receptor 2, sequence (P35968 whole entry): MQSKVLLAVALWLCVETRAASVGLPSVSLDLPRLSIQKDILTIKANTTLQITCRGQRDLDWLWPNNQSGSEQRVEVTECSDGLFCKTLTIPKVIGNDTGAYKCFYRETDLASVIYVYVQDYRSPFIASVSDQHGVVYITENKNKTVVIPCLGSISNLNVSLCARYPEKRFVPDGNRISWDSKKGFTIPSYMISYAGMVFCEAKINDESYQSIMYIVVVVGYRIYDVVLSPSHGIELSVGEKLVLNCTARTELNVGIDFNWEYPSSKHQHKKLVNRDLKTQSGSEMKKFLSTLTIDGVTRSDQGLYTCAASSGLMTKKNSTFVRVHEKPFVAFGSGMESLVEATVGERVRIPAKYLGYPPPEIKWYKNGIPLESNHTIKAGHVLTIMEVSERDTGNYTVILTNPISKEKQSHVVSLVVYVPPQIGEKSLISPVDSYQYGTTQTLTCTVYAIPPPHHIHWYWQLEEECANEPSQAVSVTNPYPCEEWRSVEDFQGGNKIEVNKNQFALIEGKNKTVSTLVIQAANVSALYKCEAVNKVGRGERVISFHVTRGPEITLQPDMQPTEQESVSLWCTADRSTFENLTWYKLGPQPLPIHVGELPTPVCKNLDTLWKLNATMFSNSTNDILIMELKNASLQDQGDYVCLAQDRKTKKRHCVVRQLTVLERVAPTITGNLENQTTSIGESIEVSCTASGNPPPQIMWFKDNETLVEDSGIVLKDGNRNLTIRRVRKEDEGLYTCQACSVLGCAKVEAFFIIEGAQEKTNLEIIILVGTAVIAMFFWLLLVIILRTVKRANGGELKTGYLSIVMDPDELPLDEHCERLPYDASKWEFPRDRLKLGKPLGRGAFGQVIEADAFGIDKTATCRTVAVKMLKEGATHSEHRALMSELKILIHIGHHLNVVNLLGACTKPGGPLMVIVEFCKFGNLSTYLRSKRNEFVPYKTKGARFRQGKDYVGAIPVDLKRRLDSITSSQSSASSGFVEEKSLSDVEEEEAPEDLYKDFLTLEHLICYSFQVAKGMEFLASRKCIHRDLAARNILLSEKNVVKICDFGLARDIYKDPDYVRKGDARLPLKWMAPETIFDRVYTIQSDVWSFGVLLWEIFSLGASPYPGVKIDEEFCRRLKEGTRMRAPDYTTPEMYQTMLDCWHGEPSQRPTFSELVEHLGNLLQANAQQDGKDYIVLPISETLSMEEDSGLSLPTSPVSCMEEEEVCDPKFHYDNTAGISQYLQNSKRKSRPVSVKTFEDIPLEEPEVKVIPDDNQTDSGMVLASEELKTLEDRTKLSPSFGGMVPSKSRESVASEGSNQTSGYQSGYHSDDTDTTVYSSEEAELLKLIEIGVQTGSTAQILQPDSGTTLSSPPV
T4 sequence (P11802 whole entry): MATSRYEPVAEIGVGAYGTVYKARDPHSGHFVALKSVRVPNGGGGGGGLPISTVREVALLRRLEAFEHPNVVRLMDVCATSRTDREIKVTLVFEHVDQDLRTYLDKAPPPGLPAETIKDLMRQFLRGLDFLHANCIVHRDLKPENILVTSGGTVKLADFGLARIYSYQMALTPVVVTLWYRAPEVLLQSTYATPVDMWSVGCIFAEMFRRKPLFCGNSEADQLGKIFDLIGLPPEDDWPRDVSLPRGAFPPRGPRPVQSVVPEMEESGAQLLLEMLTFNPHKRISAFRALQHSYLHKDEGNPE
T4 sequence (P24385 whole entry, further chain): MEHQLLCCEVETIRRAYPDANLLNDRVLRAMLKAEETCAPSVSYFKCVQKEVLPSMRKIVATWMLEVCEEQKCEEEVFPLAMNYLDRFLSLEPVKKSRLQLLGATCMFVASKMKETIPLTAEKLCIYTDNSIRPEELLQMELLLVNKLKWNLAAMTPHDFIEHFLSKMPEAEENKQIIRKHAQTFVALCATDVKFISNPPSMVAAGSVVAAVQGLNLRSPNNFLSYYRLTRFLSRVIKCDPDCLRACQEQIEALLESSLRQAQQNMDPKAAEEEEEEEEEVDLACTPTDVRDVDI
T5 sequence (P11802 whole entry, looked up): as the sequence (P11802 whole entry) above
T5 sequence (Q00534 whole entry, looked up): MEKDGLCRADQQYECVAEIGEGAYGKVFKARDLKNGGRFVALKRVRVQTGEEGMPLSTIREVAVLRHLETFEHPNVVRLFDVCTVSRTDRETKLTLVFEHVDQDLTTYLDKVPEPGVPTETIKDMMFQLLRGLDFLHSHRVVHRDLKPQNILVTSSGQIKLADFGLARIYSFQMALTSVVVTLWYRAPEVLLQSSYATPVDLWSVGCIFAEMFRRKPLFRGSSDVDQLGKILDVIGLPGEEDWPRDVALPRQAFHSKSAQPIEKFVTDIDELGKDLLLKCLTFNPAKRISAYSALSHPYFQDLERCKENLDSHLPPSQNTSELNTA

## C[C@H](CO)Nc1nc(Nc2ccc(S(N)(=O)=O)cc2)ncc1Br
[1]
  IC50: 500 nM
[2]
  IC50: 4 nM
[3]
  IC50: 34 nM
MCF7
  IC50: 266 nM
Carbonic anhydrase 2
  IC50: 514 nM

## CC1=C(C(=O)OC2CCCCC2)C(c2ccc([N+](=O)[O-])cc2)C2=C(CC(C)(C)CC2=O)N1 (stereo not drawn)
[4]
  IC50: 71000 nM
MDA-MB-231
  IC50: 4000 nM

## COc1ccc(Nc2nccc(-c3ccc4nc(C)n(C(C)C)c4c3)n2)cc1
[5]
  IC50: 4 nM
[6]
  IC50: 4 nM

## Cc1nc2ccc(-c3ccnc(Nc4ccc(CN5CCN(C(C)C)CC5)cn4)n3)cc2n1C(C)C
[5]
  IC50: 2 nM
[6]
  IC50: 1010 nM
[7]
  IC50: 89 nM
[8]
  INH: 2.2 µM

## CC(N)c1csc(/C=N/Nc2ncnc3sc(C(C)(C)C)cc23)n1 (stereo not drawn)
[9]
  IC50: 19 nM
[10]
  IC50: 830 nM
HCT-116
  IC50: 177 nM
[11]
  remaining at 3 h: 81%

## CC(N)c1csc(/C=N/Nc2ncnc3sc(C(C)C(C)C)cc23)n1 (stereo not drawn)
[9]
  IC50: 22 nM
[10]
  IC50: 880 nM
HCT-116
  IC50: 315 nM
[11]
  remaining at 3 h: 83%

## CC(Nc1cc(N2CCOCC2)ccc1[N+](=O)[O-])C12CC3CC(CC(C3)C1)C2 (stereo not drawn)
[4]
  IC50: 27000 nM
MDA-MB-231
  IC50: > 50000 nM

## Cc1nc2ccc(-c3ccnc(Nc4ccc(N5CCNCC5)cn4)n3)cc2n1C(C)C
[5]
  IC50: 2 nM
[6]
  IC50: 222 nM
[7]
  IC50: 42 nM
[8]
  INH: 0.2 µM

## CC(C)(C)c1cc2c(N/N=C/c3nccs3)ncnc2s1
[9]
  IC50: 41 nM
[10]
  IC50: 200 nM
HCT-116
  IC50: 419 nM
[11]
  remaining at 3 h: 79%

## CC(=O)c1c(C)c2cnc(Nc3ccc(N4CCNCC4)cn3)nc2n(C2CCCC2)c1=O [PALBOCICLIB]
MDA-MB-468
  IC50: > 3000 nM

## N[S+]([O-])c1ccc(/N=N/c2ccc(O)[nH]c2=O)cc1 (stereo not drawn)
[12]
  IC50: 45000 nM

## CN(C)C/C=C/C(=O)Nc1ccc(C(=O)Nc2cccc(Nc3ncc(Cl)c(-c4c[nH]c5ccccc45)n3)c2)cc1
Jurkat
  IC50: 50 nM

## C[C@@H](O)[C@@H](C)Oc1nc(Nc2ccc([S+](N)[O-])cc2)ncc1Br (stereo partly drawn)
[1]
  IC50: 4 nM
[2]
  IC50: 9 nM
[3]
  IC50: 122 nM
MCF7
  IC50: 48 nM

## C[C@@H](O)[C@@H](C)Nc1nc(Nc2ccc([S+](N)[O-])cc2)ncc1Br (stereo partly drawn)
[1]
  IC50: 10 nM
[2]
  IC50: 10 nM
[3]
  IC50: 59 nM
MCF7
  IC50: 30 nM
Carbonic anhydrase 2
  IC50: 403 nM

## C#CCNc1nc(Nc2ccccc2)ncc1Br
[1]
  IC50: 100 nM
[2]
  IC50: 100 nM
MCF7
  IC50: 4000 nM

## CC[S@@](=N)(=O)c1ccc(Nc2ncc(Br)c(N[C@H](C)[C@@H](C)O)n2)cc1
[1]
  IC50: 3 nM
[2]
  IC50: 2 nM
[3]
  IC50: 32 nM
MCF7
  IC50: 44 nM
Carbonic anhydrase 2
  IC50: > 10000 nM

## C[C@@H](O)[C@@H](C)Oc1nc(Nc2ccc(S(=N)(=O)C3CC3)cc2)ncc1C(F)(F)F (stereo partly drawn) [RONICICLIB]
MCF7
  IC50: 15 nM

## C[C@@H](O)[C@@H](C)Oc1nc(Nc2ccc([S@](=N)(=O)C3CC3)cc2)ncc1C(F)(F)F [RONICICLIB]
Carbonic anhydrase 2
  IC50: > 10000 nM
